Literature values as cited in US11285107B2, “Process for manufacturing porous silica particles loaded with at least one bioactive compound adapted for lung, nasal, sublingual, and/or pharyngeal delivery” (Nanologica AB, priority 2017, dated 2022).

solubility in water	SMILES
insoluble in water	NCC(=O)Nc1ccc(-n2nc(C(F)(F)F)cc2-c2ccc3c(ccc4ccccc43)c2)cc1 [OSU-03012, 2-amino-N-(4-(5-(phenanthren-2-yl)-3-(trifluoromethyl)-1H-pyrazol-1-yl)phenyl)acetamide]
> 6000 µg/mL	CCN(CC)CCNC(=O)c1cc(Cl)c(N)cc1OC [metoclopramide]
